Results: patent US7264925B2, “Method for analysis of oligonucleotide analogs” (AVI BioPharma, Inc., priority 2000, dated 2007)
“And” between values parts separate entries of the source, which are not always exact repeats. Identical values can stand only once.

Assay: Quantitation of PMO in plasma of cynomolgus monkeys following i.v. injection (anion exchange HPLC of the duplex with 5'-fluorescein labeled DNA)
Type: in vivo
Description: • HPLC conditions: • Column: Dionex DNA Pac™ PA-100 (250×4 mm, 15μ particle size) • Mobile Phases: A: 0.025 M Tris (pH 9); B: 0.025 M Tris (pH 9)/1 M NaCl • Gradient: A:B:C 90/10 @ 0 min to 55/45 @ 20 min • Flow Rate: 1.5 mL/min • Wavelength: 494 nm excitation; 518 detection • Temperature: 25° C.
Cynomolgus monkeys were injected i.v. with the analyte PMO, and blood samples were taken at various time intervals, as shown in Table 2. In a typical analysis, 200 μL of plasma was combined with a known amount (e.g. 500 ng) of internal standard (FIG. 11) in 10 μL of 0.025 M Tris buffer, pH 8-9. Methanol (200.0 μL) was added, and the sample was mixed using a vortex mixer. The precipitate was removed with the aid of high speed centrifugation. The supernatant was removed and the pellet washed with 100 μL Tris buffer; the wash was added to the supernatant. The mixture was heated at 70° C. for a period of 10 minutes, and the sample was once again subjected to high speed centrifugation. The supernatant was transferred and lyophilized to dryness. The dry material was reconstituted with a 100.0 μL aliquot of DNA (5′-fluorescein labeled) in 0.025 M Tris (pH 8-9) and transferred to an autosampler vial, and the entire sample was injected onto the HPLC column and analyzed.
A calibration was performed by analysis of plasma standards containing from 250 to 20,000 ng of AVI-4126. The data were plotted as the ratio of analyte to internal standard signal intensities versus the ratio of analyte to internal standard concentrations.
The level detected in this assay was 10.0 ng analyte, which corresponded to 50 ng/mL. The sensitivity of this method thus far exceeds the detection and quantitation limits of UV based methods.

With “PMO: PMO (phosphorodiamidate morpholino oligomer) having the sequence ACGTTGAGGGGCATCGTCGC (SEQ ID NO: 1), antisense to human c-myc (antisense ACGTTGAGGGGCATCGTCGC; all phosphorodiamidate morpholino (PMO))” the “level detected in representative assay (FIG. 12), amount of analyte” value (200 μL plasma sample, representative assay, time point not stated) was 10.0 ng, the “level detected in representative assay (FIG. 12), plasma concentration” value (corresponds to 10.0 ng analyte in plasma sample, time point not stated) was 50 ng/mL and the “Quantitation of PMO in plasma, 10 min” value (cynomolgus monkey plasma, i.v. injection, 10 min, one value per monkey ID) was 92.505 µg/mL and 105.37 µg/mL and 105.685 µg/mL. The “Quantitation of PMO in plasma, 2 h” value (cynomolgus monkey plasma, i.v. injection, 2 h, one value per monkey ID) was 49.895 µg/mL and 68.025 µg/mL and 49.755 µg/mL, the “Quantitation of PMO in plasma, 6 hr” value (cynomolgus monkey plasma, i.v. injection, 6 hr, one value per monkey ID) was 29.81 µg/mL and 45.33 µg/mL and 32.015 µg/mL and the “Quantitation of PMO in plasma, 24 hr” value (cynomolgus monkey plasma, i.v. injection, 24 hr, one value per monkey ID) was 17.575 µg/mL and 14.895 µg/mL and 12.645 µg/mL.
